How the values were obtained:
[1] = system: reserpine-induced hypothermia; assay: prevention of reserpine-induced hypothermia in mice (antidepressant activity); format: in vivo; settings: Mus musculus, po, 4 h, per os, 30 min before reserpine 2.4 mg/kg endoperitoneally, rectal temperature four hours after reserpine, read-out: HYPOTH/ED50 (hypothermia)
Method: (§1) The antidepressant activity was evaluated for example in mice on the basis of the prevention of reserpine-induced blepharospasm and hypothermia.

[2] = system: reserpine-induced blepharospasm; assay: prevention of reserpine-induced blepharospasm in mice (antidepressant activity); format: in vivo; settings: Mus musculus, po, 1 h, per os, 30 min before reserpine 2.4 mg/kg endoperitoneally, blepharospasm scored one hour after reserpine, read-out: BLEPH/ED50 (blepharospasm)
Method: as §1

CNC/C=C(\Oc1ccccc1Cl)c1ccccc1 [H 2-Cl H H H CH3 Z, α-(2-chlorophenoxy)-α-phenyl-β-methylaminomethyl-ethylene]
ED50 [1]: 0.2 mg/kg
ED50 [2]: 0.7 mg/kg

CNC/C=C(/Oc1ccccc1Cl)c1ccccc1 [H 2-Cl H H H CH3 E, α-(2-chlorophenoxy)-α-phenyl-β-methylaminomethyl-ethylene]
ED50 [1]: 1.2 mg/kg
ED50 [2]: 1.1 mg/kg

CN(C)C/C=C(\Oc1ccccc1)c1ccccc1 [H H H H CH3 CH3 Z, (Z)α-phenoxy-α-phenyl-β-dimethylaminomethyl-ethylene]
ED50 [1]: 1.4 mg/kg
ED50 [2]: 0.5 mg/kg

CNC/C=C(\Oc1ccccc1)c1ccccc1 [H H H H H CH3 Z, (Z)α-phenoxy-α-phenyl-β-methylaminomethyl-ethylene]
ED50 [1]: 0.8 mg/kg
ED50 [2]: 0.8 mg/kg

CNC/C=C(/Oc1ccccc1)c1ccc2c(c1)OCO2 [H H 3,4-OCH2 O H CH3 E, α-phenoxy-α-(3,4-methylenedioxyphenyl)-β-methylaminomethyl-ethylene]
ED50 [1]: 1.4 mg/kg
ED50 [2]: 1 mg/kg

CN(C)CCCN1c2ccccc2CCc2ccccc21 [IMIPRAMINE, reference compound]
ED50 [1]: 10.2 mg/kg
ED50 [2]: 24.1 mg/kg

CNC/C=C(\Oc1ccc(Cl)c(Cl)c1)c1ccccc1 [3-Cl 4-Cl H H H CH3 Z, α-(3,4-dichlorophenoxy)-α-phenyl-β-methylaminomethyl-ethylene]
ED50 [1]: 1.3 mg/kg
ED50 [2]: 1.2 mg/kg

CNC/C=C(\Oc1ccccc1)c1ccc2c(c1)OCO2 [H H 3,4-OCH2 O H CH3 Z, α-phenoxy-α-(3,4-methylenedioxyphenyl)-β-methylaminomethyl-ethylene]
ED50 [1]: 2.4 mg/kg
ED50 [2]: 2.2 mg/kg

From US5272144A, “Aryloxy-, arylthio-, heteroaryloxy-, heteroarylthio-alkenylene derivatives of amines and pharmaceutical use” (Farmitalia Carlo Erba s.r.l., priority 1988, dated 1993)
